Laboratory results from patent US20240254089A1, “MODULATORS OF MAS-RELATED G-PROTEIN RECEPTOR X4 AND RELATED PRODUCTS AND METHODS” (ESCIENT PHARMACEUTICALS, INC., priority 2020, published 2024).

The compounds below were run against T1, human MRGPR X4 (Homo sapiens, UniProt Q96LA9) (assay: MRGPR X4 antagonist activity, IP-One Gq HTRF assay in stably transfected HEK cells). Conditions: not given.
T1 construct: expressed in transfected cells
Format: cell-based
In short: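 IC50 comes from HTRF IP-1 accumulation in stably transfected HEK cells expressing human MRGPR X4. Compounds (10 uM top, 1:3 serial, 10 points) were co-incubated with 10 μM bilirubin, 20 μM deoxycholic acid or 100 μM conjugated bilirubin in LiCl-containing buffer, pH 8, for 1 h at 37 °C plus 30 min at room temperature.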

T1 sequence (Q96LA9 whole entry): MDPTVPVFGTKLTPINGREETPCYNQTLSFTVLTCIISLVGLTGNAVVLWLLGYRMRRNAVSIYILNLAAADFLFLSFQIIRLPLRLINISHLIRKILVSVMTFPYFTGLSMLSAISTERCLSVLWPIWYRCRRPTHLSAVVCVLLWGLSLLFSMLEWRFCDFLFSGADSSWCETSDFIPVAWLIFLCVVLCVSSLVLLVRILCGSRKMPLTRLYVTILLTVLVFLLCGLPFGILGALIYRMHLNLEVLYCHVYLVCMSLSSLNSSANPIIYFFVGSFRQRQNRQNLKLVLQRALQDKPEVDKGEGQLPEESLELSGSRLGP

| SMILES | IC50 [nM] |
| --- | --- |
| O=C(NCCn1cc(-c2ccccc2)nn1)c1nn(Cc2ccc(Cl)cc2)c2ccccc12 [Compound 141] | 501 to 1000 |
| O=C(NCCc1nnc2ccccn12)c1nn(Cc2ccc(Cl)cc2)c2ccc(F)cc12 [Compound 2] | < 100 |
| Cc1ccc(CNC(=O)c2nn(Cc3ccc(Cl)cc3)c3ccccc23)nn1 [Compound 334] | 501 to 1000 |
| O=C(NCCc1nnc2ccccn12)c1nn(Cc2nc(C(F)(F)F)no2)c2ccccc12 [Compound 513] | > 2500 |
| Cc1ccc(Cn2nc(C(=O)NCCc3cn4c(n3)SCC4)c3ccccc32)cc1 [Compound 41] | 100 to 500 |
| O=C(NCCc1nnc2ccccn12)c1nn(Cc2cc3ccccc3o2)c2ccccc12 [Compound 496] | < 100 |
| O=C(NCc1ccnc2ccccc12)c1nn(Cc2ccc(Cl)cc2)c2ccccc12 [Compound 371] | > 2500 |
| CC(=O)c1ccc(Cn2nc(C(=O)NCCc3nnc4ccccn34)c3ccccc32)cc1 [Compound 413] | 100 to 500 |
| O=C(NCc1cccnc1N1CCOCC1)c1nn(Cc2ccc(Cl)cc2)c2ccccc12 [Compound 395] | > 2500 |
| O=C(NCCc1cn2c(n1)SCC2)c1nn(Cc2ccc(Cl)cc2)c2ccccc12 [Compound 33] | 100 to 500 |
| Cc1ccc(Cn2nc(C(=O)NCCc3nc4c(s3)COCC4)c3ccccc32)cc1 [Compound 65] | 100 to 500 |
| Cn1c(CCNC(=O)c2nn(Cc3ccc(Cl)cc3)c3ccccc23)nc2ccccc21 [Compound 397] | 100 to 500 |
| O=C(NCCc1nnc2ccccn12)c1nn(Cc2cc3c(cc2Cl)OCO3)c2ccc(F)cc12 [Compound 536] | < 100 |
| O=C(NCCc1cccnc1)c1nn(Cc2cccc(Cl)c2)c2ccccc12 [Compound 87] | 501 to 1000 |
| CS(=O)(=O)c1ccc(CNC(=O)c2nn(Cc3ccc(Cl)cc3)c3ccccc23)cc1 [Compound 378] | > 2500 |
| O=C(NCCc1nnc2ccccn12)c1nn(Cc2ccc(Cl)cc2)c2c(F)cccc12 [Compound 540] | < 100 |
| O=C(NCCc1nc2c(s1)CCCC2)c1nn(Cc2ccc(Cl)cc2F)c2ccccc12 [Compound 131] | 100 to 500 |
| O=C(NCCc1nnc2ccccn12)c1nn(CCC2CCCC2)c2ccccc12 [Compound 504] | 501 to 1000 |

| SMILES | IC50 [nM] |
| --- | --- |
| COc1cccc(Cn2nc(C(=O)NCCc3nnc4ccccn34)c3ccccc32)n1 [Compound 434] | 1000 to 2500 |
| O=C(NCc1cncnc1)c1nn(Cc2ccc(Cl)cc2)c2ccccc12 [Compound 375] | > 2500 |
| O=C(NCCc1nnc2ccccn12)c1nn(Cc2ccc3occc3c2)c2ccccc12 [Compound 493] | < 100 |
| O=C(NCCc1ccncc1)c1cn(Cc2ccc(Cl)cc2)c2ccccc12 [Compound 163] | 100 to 500 |
| O=C(NCCc1c[nH]c2ccc(O)cc12)c1nn(Cc2ccc(Cl)cc2)c2ccccc12 [Compound 338] | 100 to 500 |
| Cc1ccc(Cn2cc(C(=O)NCCc3nc4ccccc4s3)c3ccccc32)cc1 [Compound 192] | 501 to 1000 |
| O=C(NCCc1nc2c(s1)CCCC2)c1nn(Cc2ccc(Cl)c(Cl)c2)c2ccccc12 [Compound 56] | 100 to 500 |
| COc1cccc(Cn2nc(C(=O)NCCc3cccnc3)c3ccccc32)c1 [Compound 101] | 1000 to 2500 |
| O=C(NCCc1cccnc1)c1nn(Cc2ccc(OC(F)(F)F)cc2)c2ccccc12 [Compound 136, N-(2-(pyridin-3-yl)ethyl)-1-(4-(trifluoromethoxy)benzyl)-1H-indazole-3-carboxamide] | 100 to 500 |
| O=C(NCCc1nnc2ccccn12)c1nn(Cc2cccc(C(F)(F)F)c2F)c2ccccc12 [Compound 459] | 100 to 500 |
| O=C(NCc1ccc(-n2cccn2)cc1)c1nn(Cc2ccc(Cl)cc2)c2ccccc12 [Compound 359] | > 2500 |
| Cc1occc1Cn1nc(C(=O)NCCc2nnc3ccccn23)c2ccccc21 [Compound 520] | > 2500 |
| O=C(NCCc1ccno1)c1nn(Cc2ccc(Cl)cc2)c2ccccc12 [Compound 90] | 501 to 1000 |
| Cc1cccn2c(CCNC(=O)c3nn(Cc4ccc(Cl)cc4)c4ccc(F)cc34)nnc12 [Compound 1] | < 100 |
| Cc1cc(Cn2nc(C(=O)NCCc3cccnc3)c3ccccc32)ccc1Cl [Compound 32] | 100 to 500 |
| COc1ccc2c(c1)c(C(=O)NCCc1nnc3ccccn13)nn2Cc1ccc(Cl)cc1 [Compound 543] | 100 to 500 |
| O=C(NCCc1nnc2ccccn12)c1nn(Cc2nc3ccccc3o2)c2ccccc12 [Compound 438] | 100 to 500 |
| N#Cc1ccc(Cn2cc(C(=O)NCCc3ccc(Cl)c(F)c3)c3ccccc32)cc1 [Compound 188] | 501 to 1000 |

Same assay, conditions: versus 20 μM deoxycholic acid agonist; HEK cells expressing human MRGPR X4; read-out: MRGPRX4 Antagonist Activity

| SMILES | IC50 [nM] |
| --- | --- |
| Cc1cc(F)cc(S(=O)(=O)NC(=O)c2nn(Cc3ccc(OC(F)F)cc3)c3ccccc23)c1 [Compound 274] | 1000 to 2500 |
| Cc1ccc(S(=O)(=O)NC(=O)c2nn(Cc3ccc(OC(F)F)cc3)c3ccccc23)cc1 [Compound 309, 1-(4-(difluoromethoxy)benzyl)-N-tosyl-1H-indazole-3-carboxamide] | 1000 to 2500 |
| O=C(NCCc1ccccn1)c1cn(CCc2ccc(Cl)cc2)c2ccccc12 [Compound 217] | 1000 to 2500 |
| Cc1ccccc1CS(=O)(=O)NC(=O)c1nn(Cc2ccc(Cl)cc2)c2ccccc12 [Compound 288] | 1000 to 2500 |
| COC(=O)c1ccc(S(=O)(=O)NC(=O)c2nn(Cc3ccc(OC(F)F)cc3)c3ccccc23)cc1 [Compound 277] | 1000 to 2500 |
| O=C(NCC1CCS(=O)(=O)CC1)c1nn(Cc2ccc(Cl)cc2)c2ccccc12 [Compound 390] | > 2500 |
